# Target: Protein-arginine deiminase type-4 (Homo sapiens, UniProt Q9UM07)
# Assay: Inhibition of human PAD4 using BAEE as substrate incubated for 30 mins by spectrophotometric based assay
# Sequence of Protein-arginine deiminase type-4 (Q9UM07 whole entry): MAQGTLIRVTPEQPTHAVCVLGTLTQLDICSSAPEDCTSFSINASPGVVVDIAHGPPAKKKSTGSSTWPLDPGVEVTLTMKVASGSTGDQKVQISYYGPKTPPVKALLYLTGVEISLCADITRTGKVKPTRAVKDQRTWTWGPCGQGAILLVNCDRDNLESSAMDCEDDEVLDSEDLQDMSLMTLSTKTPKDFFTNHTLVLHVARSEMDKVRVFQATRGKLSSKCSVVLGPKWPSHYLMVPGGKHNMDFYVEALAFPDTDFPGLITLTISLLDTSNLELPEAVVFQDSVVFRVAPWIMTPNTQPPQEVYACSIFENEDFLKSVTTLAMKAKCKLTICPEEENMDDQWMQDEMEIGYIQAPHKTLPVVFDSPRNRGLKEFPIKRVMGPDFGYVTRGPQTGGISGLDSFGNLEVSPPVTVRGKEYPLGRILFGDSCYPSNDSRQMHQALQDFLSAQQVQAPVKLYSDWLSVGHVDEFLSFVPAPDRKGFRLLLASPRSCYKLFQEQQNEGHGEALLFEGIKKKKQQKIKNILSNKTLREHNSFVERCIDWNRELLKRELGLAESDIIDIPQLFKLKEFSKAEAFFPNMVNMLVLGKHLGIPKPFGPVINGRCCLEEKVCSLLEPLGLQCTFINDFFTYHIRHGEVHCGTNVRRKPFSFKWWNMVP
row,Structure (SMILES),IC50 [nM]
1,CC1NC(=O)[C@@H]2C[C@@]2(F)CCCC(F)(F)Cn2c(-c3nc4cc(C(=O)N5CCC[C@@H](N)[C@H]5C)cc(F)c4n3C3CC3)cc3ccc1nc32 (stereo partly specified),5
2,CC1NC(=O)[C@@H]2CC2CCCC(F)(F)Cn2c(-c3nc4cc(C(=O)N5CCC[C@@H](N)[C@H]5C)cc(Cl)c4n3C3CC3)cc3ccc1nc32 (stereo partly specified),6
3,CC1NC(=O)c2cc3sccc3nc2CCCCCn2c(-c3nc4cc(C(=O)N5CCC[C@@H](N)[C@H]5C)cc(F)c4n3C3CC3)cc3ccc1nc32 (stereo partly specified),5
4,Cc1ccc2c(n1)CCCCCn1c(-c3nc4cc(C(=O)N5C[C@H](N)[C@@H]6CC[C@H]5C6)cc(F)c4n3C3CC3)cc3ccc(nc31)C(C)NC2=O (stereo partly specified),6
5,[2H]C1([2H])[C@H](N)[C@@H]2CC[C@@H](C2)N1C(=O)c1cc(OC)c2c(c1)nc(-c1cc3ccc4nc3n1CCCCCc1ccccc1C(=O)NC4C)n2C (stereo partly specified),5
6,COc1cc(C(=O)N2C[C@H](N)[C@@H]3CC[C@H]2C3)cc2nc(-c3cc4ccc5nc4n3CCCCCC3[C@H](C(=O)NC5C)C3(F)F)n(C)c12 (stereo partly specified),5
